# Values quoted from earlier work as cited in the CATMoS acute toxicity set (Mansouri et al. 2021).
# “And” between values parts separate entries of the source, which are not always exact repeats. Equal values may be shown once.
# Assay: rat acute oral toxicity
# Conditions: in vivo
row,SMILES,LD50
1,CC(=O)c1c(=O)cc(C)oc1=O,706 mg/kg
2,O=C(O)CCc1nc2ccccc2[nH]1,1700 mg/kg
3,COC(=O)C1CCC(C(=O)OC)CC1 (stereo not drawn),2810 mg/kg
4,Cc1ccc(C(=O)c2ccc(CC(=O)NNCC(=O)N3CCN(C)CC3)n2C)cc1,978 mg/kg
5,CCOC(=O)CCC(=O)OCC,8530 mg/kg
6,CCCCC(C)C(C)C(C)C(C)=O (stereo not drawn),8470 mg/kg
7,CCCCNC(=O)NS(=O)(=O)c1ccc(N)cc1,4400 mg/kg
8,CCOC(=O)Nc1ccc2c(c1)N(C(=O)CCN1CCOCC1)c1ccccc1S2,1000 mg/kg
9,FC(F)(F)c1nc2c(Cl)c(Br)c(Cl)cc2[nH]1,8.78 mg/kg
10,CCN(CC)CCNC(=O)C(C)(C)Oc1ccc(Cl)cc1,300 mg/kg
11,CCC(C)CO (stereo not drawn),4170 mg/kg
12,COP(=O)(OC)ON1C(=O)c2cccc3cccc(c23)C1=O,70 mg/kg
13,CCCCCCCCCCCCCCCC[N+](C)(C)CC(=O)[O-],1620 mg/kg
14,O=c1[nH]nc2n1-c1cc([N+](=O)[O-])cc([N+](=O)[O-])c1OC2,3690 mg/kg
15,Oc1c(Cl)cc(Cl)c(Cl)c1Cc1c(O)c(Cl)cc(Cl)c1Cl,59.2 mg/kg
16,CN(C)CC(=O)O,3900 mg/kg
17,N#C[SeH],10 mg/kg
18,O=C1CCCO1,1540 mg/kg
19,CN1C(C(=O)Nc2ccccn2)=C(O)c2sccc2S1(=O)=O,79 mg/kg
20,CCOP(=S)(OCC)Sc1ccc(C)cc1,316 mg/kg
21,COc1cc(C(=O)Oc2c(CCC(C)=O)c(=O)n(-c3ccccc3)n2-c2ccccc2)cc(OC)c1OC,3000 mg/kg
22,CCN(CC)CCOc1ccccc1-n1c(C)ccc1-c1ccccc1,700 mg/kg
23,Cc1[nH]nc(Cl)c1[N+](=O)[O-],350 mg/kg
24,CCCCCCCCCCOc1c(OC)cc(C(N)=O)cc1OC,1650 mg/kg

row,SMILES,LD50
1,O=C(O)Cc1ccccc1Nc1c(Cl)cc(Cl)c2ccccc12,56.2 mg/kg
2,CCCCC(C)(C)[C@H](O)C=C[C@H]1[C@H](O)CC(=O)[C@@H]1CCCCC=CC(=O)OC,56.5 mg/kg
3,O=c1ccc2cc(CCCCN3CCN(c4ccccc4)CC3)ccc2[nH]1,500 mg/kg
4,OC(c1ccccc1)(c1ccc(Cl)cc1)C1CCCCN1 (stereo not drawn),400 mg/kg
5,CCCCN1CCCN=C1C(OCC)c1ccccc1 (stereo not drawn),220 mg/kg
6,O=C(O)CCc1nc(-c2ccccc2)c(-c2ccccc2)o1,4470 mg/kg
7,C1CN2CCC1CC2,81.2 mg/kg
8,c1ccc(-n2cnnc2)cc1,134 mg/kg
9,Nc1ccc(N(c2ccccc2)c2ccc(N)cc2)cc1,330 mg/kg
10,C=Cc1ccncc1,100 mg/kg
11,CCCCOc1ccc(C(CN(C)C)C(C)CC)cc1Cl (stereo not drawn),1050 mg/kg
12,Cc1nc(N)sc1C(=O)Nc1ccccc1,1410 mg/kg
13,O=[N+]([O-])c1cnc(Cl)c([N+](=O)[O-])c1,50 mg/kg
14,COC(C)CO (stereo not drawn),5710 mg/kg
15,CCCOC(C1=NCCN1)c1ccccc1 (stereo not drawn),350 mg/kg
16,Cc1ncc(CNC(=O)N(CCCl)N=O)c(N)n1,113 mg/kg
17,C1CCCCC1,12700 mg/kg
18,COc1ccc2c(-c3ccc(OCC(O)CNC(C)C)cc3)c(-c3ccccc3)c(=O)oc2c1 (stereo not drawn),1000 mg/kg
19,CCCCCCc1ccc(C)cc1O,2300 mg/kg
20,O=[N+]([O-])c1ccc(O)cc1,320 mg/kg
21,CCOC(C1=NCC(C)(C)CN1)c1ccc(Cl)cc1 (stereo not drawn),190 mg/kg
22,Nc1ccc2ccccc2c1,727 mg/kg
23,O=C(CCCN1CCC2(CCCCC2)CC1)c1ccc(F)cc1,200 mg/kg
24,COP(=S)(OC)SC1CCSc2ccccc21 (stereo not drawn),5 mg/kg

row,SMILES,LD50
1,O=C(O)c1cccnc1C(=O)O,1550 mg/kg
2,c1ccc(Cc2ccccc2)cc1,2250 mg/kg
3,OCc1cccc(Oc2ccccc2)c1,1500 mg/kg
4,CC(C)(C)C(CS(C)(=O)=O)=NO,734 mg/kg
5,O=C1OC(CCN2CCCCC2)OC1(c1ccccc1)c1ccccc1 (stereo not drawn),1500 mg/kg
6,NCCCC[C@H](N)C(=O)O,11400 mg/kg and 10000 mg/kg
7,O=S(=O)(O)C(F)(F)C(F)(F)C(F)(F)C(F)(F)F,430 mg/kg
8,CN(C)CCOc1ccnc(N)n1,1500 mg/kg
9,C=C(C)C1CC=C(C)C(=O)C1 (racemic),1640 mg/kg
10,CCCCN1C(=O)c2cccc([N+](=O)[O-])c2C1=O,2030 mg/kg
11,CC(C)COC(=O)c1ccccc1O,1560 mg/kg
12,CC(CCC(=O)O)C(=O)O (stereo not drawn),300 mg/kg
13,CNC(=O)Oc1ccc2c(c1)[C@]1(C)CCN(C)[C@@H]1N2C,4.5 mg/kg
14,O=C1C(O)N=C(c2ccccc2F)c2cc(Cl)ccc2N1CCO (stereo not drawn),2550 mg/kg
15,O=C(CCCN1CCN2Cc3[nH]c4ccccc4c3CC2C1)c1ccc(F)cc1 (stereo not drawn),700 mg/kg
16,CC(C)COCC(CN(Cc1ccccc1)c1ccccc1)N1CCCC1 (stereo not drawn),6850 mg/kg
17,CC1CCCC2N(C)C=C(C(N)=O)C(=O)N12 (stereo not drawn),370 mg/kg
18,CN(c1ccc(Cl)cc1Cl)c1c([N+](=O)[O-])cc([N+](=O)[O-])cc1C(F)(F)F,4.5 mg/kg
19,OC1CCCc2ccccc21 (stereo not drawn),1620 mg/kg
20,O=C(O)c1ccc(C(=O)O)c2c(C(=O)O)ccc(C(=O)O)c12,7500 mg/kg
21,CCC(C)(CC)c1cc(N)on1,144 mg/kg
22,C[Si](Cl)(Cl)CCC(F)(F)F,1000 mg/kg
23,CC(C)=CC(=O)O[C@H]1CC[C@]2(C=O)[C@H]3CC[C@]4(C)[C@@H](c5ccc(=O)oc5)CC[C@]4(O)[C@@H]3CC[C@]2(O)C1,1.74 mg/kg
24,CNCCCC12CCC(c3ccccc31)c1ccccc12,760 mg/kg

row,SMILES,LD50
1,O=S(=O)(O)CO,3200 mg/kg
2,CO[C@H]1C=CC2=CCN3CCC4=C(CC(=O)OC4)[C@]23C1,510 mg/kg
3,CCCCCCCCCc1ccc(C)cc1O,4000 mg/kg
4,COCCOC(C)OCCOC,3260 mg/kg
5,FC(F)(F)CO[C@@H]1CC[C@@](Cn2cncn2)(c2ccc(Cl)cc2Cl)O1,450 mg/kg
6,CCCCC(CC)COC(=O)C(CC)CCCC (stereo not drawn),27000 mg/kg
7,CCOC(=O)CSP(=S)(OCC)OCC,1100 mg/kg
8,O=S1OCC2C(CO1)C1(Cl)C(Cl)=C(Cl)C2(Cl)C1(Cl)Cl (stereo not drawn),240 mg/kg
9,CCOc1ccccc1OS(=O)(=O)NC(O)=Nc1nc(OC)cc(OC)n1,2910 mg/kg
10,CCOC(=O)N1C(=O)NC(c2ccccc2)(c2ccccc2)C1=O,3500 mg/kg
11,CC(C)(C)C(O)C(=Cc1ccc(Cl)cc1Cl)n1cncn1 (stereo not drawn),474 mg/kg
12,Cc1cc(C(=O)c2ccccc2)ccc1N=Cc1ccc(OCCC(C)C)cc1,1500 mg/kg
13,c1ccc2c(c1)CCN1CCN=C1C2,60 mg/kg
14,CC(C)OP(=O)(OC(C)C)SCc1ccccc1,550 mg/kg
15,CNC(=O)Oc1ccc(NC(C)=O)cc1,794 mg/kg
16,CC(C)(C)[C@H](O)/C(=C\c1ccc(Cl)cc1)n1cncn1,430 mg/kg
17,CCCCOC(=O)c1ccccc1C(=O)OCc1ccccc1,2330 mg/kg
18,CNC(=O)Oc1cccc2ccc(C)nc12,120 mg/kg
19,O=C(OCCCl)c1ccccc1C(=O)OCCCl,730 mg/kg
20,CCOC(=O)[C@H](CCc1ccccc1)N[C@@H](C)C(=O)N1Cc2cc(OC)c(OC)cc2C[C@H]1C(=O)O,4020 mg/kg
21,CC(C)(C)NCC(O)COc1cccc2c1CCC(=O)N2 (stereo not drawn),1330 mg/kg
22,CNNC,100 mg/kg and 257 mg/kg
23,CC(=O)Cl,910 mg/kg
24,COc1ccc(S(=O)(=O)Nc2nnc(CC(C)C)s2)cc1,534 mg/kg

row,SMILES,LD50
1,CCS(=O)CSP(=S)(OC(C)C)OC(C)C (stereo not drawn),25 mg/kg
2,CCc1nc(N)nc(N)c1-c1ccc(Cl)cc1,440 mg/kg
3,Cc1cc2c(cc1C)C(=O)c1n[nH]nc1C2=O,980 mg/kg
4,CN1CCCCC1CCN1c2ccccc2Sc2ccc(S(C)=O)cc21 (stereo not drawn),644 mg/kg
5,COP(=O)(OC)SC(CC(=O)OC(C)C)C(=O)OC(C)C (stereo not drawn),120 mg/kg
6,CC(C)(CNc1ccc(N=O)cc1)[N+](=O)[O-],2730 mg/kg
7,CC(=O)N(OCCN(C)C)C12CC3CC(CC(C3)C1)C2,630 mg/kg
8,CCOP(=S)(OCC)SCn1nc(Cl)c(Cl)cc1=O,1880 mg/kg
9,N#Cc1ccc(N)cc1,283 mg/kg
10,Nc1ccc(/N=N/c2ccc(-c3ccc(/N=N/c4c(S(=O)(=O)O)cc5cc(S(=O)(=O)O)c(/N=N/c6ccccc6)c(O)c5c4N)cc3)cc2)c(N)c1,7600 mg/kg
11,CC(C)=NNC(=O)CSc1cc(Oc2ccc(F)cc2)ncn1,380 mg/kg
12,COP(=S)(OC)Sc1ccc(Cl)cc1,500 mg/kg
13,CNC(=O)ON=C(CSC)C(C)(C)C,8.5 mg/kg
14,O=C1c2c(O)ccc(O)c2C(=O)c2c(NCCNCCO)ccc(NCCNCCO)c21,682 mg/kg
15,CC(C)OC(=O)COc1cc(Cl)c(Cl)cc1Cl,495 mg/kg
16,CCOC(=O)C1=CN(C(=O)CC)C2CCCC(C)N2C1=O (stereo not drawn),2970 mg/kg
17,CCCCN(CCCC)CCOc1ccnc(N)n1,1000 mg/kg
18,O=C1CNC(=S)N1,420 mg/kg
19,ClCC1(CCl)COC1,600 mg/kg
20,c1cc2c(cc1CCC(CCc1ccc3c(c1)OCO3)N1CCCC1)OCO2,565 mg/kg
21,CC(C)=CC(=O)Nc1ccc(O)cc1,1950 mg/kg
22,CCOC(=O)C1(c2ccccc2)CCN(CCc2ccc(N)cc2)CC1,175 mg/kg
23,CCOC1CCC=CO1 (stereo not drawn),6160 mg/kg
24,CCN(CCC#N)c1cccc(C)c1,3710 mg/kg

row,SMILES,LD50
1,COC(=O)C(C)N(C(=O)c1ccco1)c1c(C)cccc1C (stereo not drawn),940 mg/kg
2,CC[C@H]1CN2CCc3cc(OC)c(OC)cc3[C@@H]2C[C@@H]1C[C@H]1NCCc2cc(OC)c(OC)cc21,0.012 mg/kg
3,OC(c1ccccc1)C1CCCCC1 (stereo not drawn),9300 mg/kg
4,O=[N+]([O-])c1ccc(Cl)c2nc(C(F)(F)F)[nH]c12,11.1 mg/kg
5,CCOC(=O)[C@H](CCc1ccccc1)N[C@@H](C)C(=O)N1CCC[C@H]1C(=O)O,2970 mg/kg
6,CCCCCCCCCCCCN(C)C,800 mg/kg
7,CC(O)c1cccc(N)c1 (stereo not drawn),3100 mg/kg
8,COc1cc(C(=O)c2ccc(Cl)cc2)cc(OC)c1OCCN1CCOCC1,1290 mg/kg
9,CC(=O)OCCC1CCCCC1,3200 mg/kg
10,CCN(CC)c1cccc(S(=O)(=O)O)c1,7470 mg/kg
11,CC(C(=O)O)c1ccc(N2CC3=C(CC=CC3)C2=O)cc1 (stereo not drawn),328 mg/kg
12,O=C(O)/C=C/c1ccc(Cn2ccnc2)cc1,4160 mg/kg
13,CC1=CCC2CC1C2(C)C (stereo not drawn),3700 mg/kg
14,CCN(CCCCOC(=O)c1ccc(OC)c(OC)c1)C1CCc2cc(OC)c(OC)cc2C1 (stereo not drawn),1540 mg/kg
15,COc1ccc2c(=O)oc3c(OC)cc(CCN(C)C)c4c(=O)oc1c2c34,518 mg/kg
16,COP(=S)(OC)SCn1nc(C)ccc1=O,8.75 mg/kg
17,O=C(CCl)c1ccc(O)cc1,230 mg/kg
18,CC1(CO)CN(c2ccccc2)NC1=O (stereo not drawn),566 mg/kg
19,CNC(=O)Oc1cccc2c1OCCO2,126 mg/kg
20,CCCCCCCCP(=O)(O)O,1890 mg/kg
21,CNC(C)CC1CCCCC1 (stereo not drawn),83 mg/kg
22,CSc1ccc2c(c1)N(CCCN(C)C)c1ccccc1S2,1450 mg/kg
23,CC(C)=CCC1=C(O)C(C(=O)CC(C)C)=C(O)C(CC=C(C)C)(CC=C(C)C)C1=O,100 mg/kg
